In patent US20050026223A1, “Method and compositions for increasing bone mass” (The Board of Trustees of the University of Arkansas, priority 1999, published 2005):

Legend:
[1] = tested on: extracellular signal regulated kinases (ERKs) 1 and 2; experiment: Western blot of phosphorylated ERK1/2 in MLO-Y4 osteocytic cells; format: cell-based, murine
Procedure: (§1) MLO-Y4 osteocytic cells were incubated for 25 minutes in serum-free medium. […] Cell lysates were prepared and proteins were separated by electrophoresis in polyacrylamide gels and transferred to PVDF membranes. Western blotting was performed using a specific antibody recognizing phosphorylated ERKs 1 and 2, followed by reblotting with an antibody recognizing total ERKs. Blots were developed by enhanced chemiluminescence.
as §1, with “MLO-Y4” for “MLO-Y4 osteocytic”, “medium in the presence or absence of 50 μM PD98059.” for “medium.”
as §1, with “In this experiment, MLO-Y4” for “MLO-Y4”, “extracellular signal regulated kinases” for “ERKs”, “extracellular signal regulated kinases.” for “ERKs.”, “chemiluminescence. […] This effect is too rapid to be accounted for by the classical mechanism of estrogen action.” for “chemiluminescence.”
as §1, with “In this experiment, MLO-Y4” for “MLO-Y4”, “medium in the presence or absence of 50 μM PD98059.” for “medium.”, “extracellular signal regulated kinases” for “ERKs”, “extracellular signal regulated kinases.” for “ERKs.”

human ERα = target: T1, human ERα (Homo sapiens, UniProt P03372); experiment: Estrogen response element luciferase reporter in 293 cells overexpressing hERα; format: cell-based; details: 3 copies ERE-luciferase
T1 construct: expressed in transfected cells; host or cells: 293 (human embryonic kidney) cells
T1 sequence (P03372 1-595): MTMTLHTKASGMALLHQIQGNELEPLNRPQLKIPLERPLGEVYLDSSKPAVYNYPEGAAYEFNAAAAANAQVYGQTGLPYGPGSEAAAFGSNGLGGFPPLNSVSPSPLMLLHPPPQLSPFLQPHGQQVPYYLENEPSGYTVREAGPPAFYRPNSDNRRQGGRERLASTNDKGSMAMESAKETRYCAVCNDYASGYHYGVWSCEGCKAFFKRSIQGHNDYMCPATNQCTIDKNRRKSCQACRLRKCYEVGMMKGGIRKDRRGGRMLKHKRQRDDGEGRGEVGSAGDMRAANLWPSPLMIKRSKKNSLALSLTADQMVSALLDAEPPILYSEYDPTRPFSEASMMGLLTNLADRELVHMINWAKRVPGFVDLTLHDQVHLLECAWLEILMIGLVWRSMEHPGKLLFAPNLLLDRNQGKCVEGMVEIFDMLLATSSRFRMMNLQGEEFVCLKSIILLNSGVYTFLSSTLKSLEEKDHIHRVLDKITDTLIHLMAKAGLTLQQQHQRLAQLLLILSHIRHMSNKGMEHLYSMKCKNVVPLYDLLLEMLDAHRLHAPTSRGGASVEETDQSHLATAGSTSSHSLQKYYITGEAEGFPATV
Source text: The human ERα was overexpressed in 293 cells lacking ERα along with a reporter construct containing 3 copies of an estrogen response element driving the luciferase gene. Light units were counted and normalized to coexpressed b-galactosidase activity to control for differences in transfection efficiency. Results represent percent stimulation compared to ERα transfected cells, but not treated with the two agents. Each bar represents mean of duplicate experiments +/−SEM. *p<0.001 vs. cells not exposed to the sterols.
In this experiment, hERα was overexpressed in 293 cells (which lack constitutive ERα) along with a reporter construct containing 3 copies of an estrogen response element driving the luciferase gene. Light units were counted and normalized to coexpressed β-galactosidase activity to control for differences in transfection efficiency.

[2] = Vertebral compression strength of fifth lumbar vertebrae (L5); format: in vivo, mice; details: 2000 ng/g body weight for 28 days, mean
Procedure: In a representative experiment of this sort, seven 4-5 month old female mice per group are screened twice for BMD in a four week period immediately prior to the initiation of the experiment to establish that peak adult bone mass has been attained. A subset of mice are then ovariectomized. Intact and ovariectomized mice are treated with vehicle, or 20, 200 or 2000 ng/g body weight estratriene-3-ol or another ANGEL compound. […] Ultimate load bearing properties of the fifth lumbar murine vertebrae (L5) is determined. This is done using a servohydraulic axial-torsional material testing machine (Model MTS 810 Bionx; MTS Systems Corp., Eden Prairie, Minn.) and a Lebow load cell (Eaton Products, Troy, Mich.). Data are recorded and analyzed using the LabVIEW software package and an acquisition/signal conditioning board (Model NB-MIO-16, National Instruments Corporation, Austin, Tex.). The L5 specimens that is used for ultimate load bearing is cleaned of surrounding soft tissue and the length and diameter recorded with a digital caliper at a resolution of 0.01 mm (Mitutoyo Model #500-196, Ace Tools, Ft. Smith, Ark.). […] Vertebrae are individually compressed between parallel loading platens along the cephalocaudad axis until failure and the ultimate load (in Newtons) and displacement (in mm) are recorded. […]

MLO-Y4 osteocytic cells = experiment: Etoposide-induced apoptosis of MLO-Y4 osteocytic cells (trypan blue uptake); format: cell-based, murine
Procedure: Cells were pretreated with the indicated concentrations of the compounds for 1 hour before the addition of the pro-apoptotic agent etoposide. Apoptosis was determined after 6 hour by trypan blue uptake as described in FIG. 3. * indicates p<0.05 versus etoposide alone, by ANOVA (Student-Newman-Keuls method).
MLO-Y4 cells were pretreated for 1 hour with the pure receptor antagonist ICI182,780 (10^−7 M) before the addition of the test agents (10^−8 M). Apoptosis was induced and quantified as described in FIG. 3. * indicates p<0.05 versus etoposide alone, by ANOVA (Student-Newman-Keuls method).
In this experiment, MLO-Y4 cells were pretreated with the indicated concentrations of the various compounds for 1 h before the addition of the pro-apoptotic agent, etoposide. Apoptosis was determined after 6 h by trypan blue uptake as described in FIG. 3.

SMILES: C[C@@]12CCC[C@H]1[C@@H]1CCc3cc(O)ccc3[C@H]1CC2 [estratriene-3-ol]
- Activation of ERKs (phosphorylated fraction of ERK1/2) ([1]; 10^−8 M, 5, 15 or 30 minutes): activated
- Ability to activate ERKs in the presence of PD98059 ([1]; compound 10^−8 M, 5 minutes, 50 μM PD98059): abrogated
- Transactivation of an estrogen response element through the estrogen receptor α (human ERα): did not transactivate
- Vertebral Compression ([2]; Ovx mice, p < 0.00001): 85.57 ± 10.17 Newtons
- Vertebral Compression ([2]; intact mice, p < 0.006): 96.26 ± 15.92 Newtons
- Inhibition of etoposide-induced apoptosis of osteocytic cell line (MLO-Y4 osteocytic cells; 1 h pretreatment before etoposide, trypan blue after 6 h): dose-dependently inhibited
- Antiapoptotic effect on osteocytes after ICI182,780 (MLO-Y4 osteocytic cells; 1 h pretreatment with ICI182,780 10^−7 M): abrogated
